Data as given in patent US6184207A, “Inhibitors of peptide binding to MHC class II proteins” (Zeneca Limited, priority 1996, dated 2001).

Columns and labels:
BALB/C mice = test: Test C: Peptide stimulated DTH (delayed type hypersensitivity) in BALB/C mice; type: in vivo; settings: ovalbumin DTH footpad swelling, 3-day osmotic mini-pumps
Experimental: Test C: Peptide stimulated DTH (delayed type hypersensitivity) in BALB/C mice. […] Balb/c female mice (18-20 g), 5 per group, were immunised sub-cutaneously on the flank with 0.1 ml of an emulsion of ovalbumin (Sigma) (2 mg/ml in saline) mixed 1:1 (v/v) with complete Freunds adjuvant (Sigma). Seven days later footpad thickness was detemined using a dual caliper micrometer followed by a challenge in one hind footpad with a 30 μl sub-plantar injection of 1% heat-aggregated ovalbumin protein in saline. Twenty-four hours after antigen challenge, footpads were measured and the DTH response calculated as the percentage increase in footpad thickness in the injected footpad compared to contralateral control. Inhibitors were adminstered by 3-day osmotic mini-pumps (Alzet) implanted 24 hours prior to antigen challenge at doses ranging from 10 mg/kg/day to 0.1 μg/kg/day. The degree of inhibition was calculated by substracting the value for swelling of inhibitor treated footpads from that of the vehicle dosed controls, dividing by the control value and multiplying by 100%.

HLA-DR4Dw4 = target: T1, HLA-DR4Dw4 (Homo sapiens, UniProt P01903+P01911, A100K/A169T/F76Y/I96L/K127E/L162R/M171V/N62H/P40V/Q125Y/R42H/S133A/S149N/S66Y/V115G/V209L/W38E); test: Test A: Purified HLA-DR peptide in vitro binding assay; settings: inhibition of biotin-FHA 307-320 binding to purified HLA-DR4Dw4, 48 hours
T1 construct: a cDNA encoding the β chain is cloned into the transfer vector pAcUW1; made in house; host or cells: Sf21 insect cells, double-recombinant baculovirus
Description: The utility of the peptides of the formula I, or a pharmaceutically acceptable salt thereof, may be assessed using a variety of standard tests and clinical studies, including those described in International Patent Application, Publication Nos. WO92/02543, WO93/05011 and WO95/07707 (or modifications thereof) and those described below. The peptides of formula I show significant activity in one or more of such tests or studies. Test A: Purified HLA-DR peptide in vitro binding assay. […]. […] The reaction is stopped by adding 2M sulphuric acid (10 μl per well) and the absorbance read at 450 nm to quantify the amount of peptide bound. The inhibitory activity of peptides is obtained by plotting absorbance against concentration. […]
A cDNA encoding the sequence of the α polypeptide is cloned into the transfer vector pacYM1 [Matsuura, Y; Possce, RD; Overton, HA & Bishop, DHL (1987) J. Gen. […] The molecular genetic techniques used to construct the recombinant vectors are likewise readily available in the literature and are most fully described by Sambrook, J; Fritsch, EF & Maniatis T, (1989) [Molecular Cloning. […]

C[C@H](NC(=O)CN1CCCC(NC(=O)[C@@H](NC(=O)[C@H](C)NC(=O)[C@H](C)NC(=O)[C@H](C)NC(=O)[C@H](CCCNC(=N)N)NC(=O)CCCCc2ccccc2)[C@@H](C)O)C1=O)C(=O)Nc1ccc(CC(N)=O)cc1 (stereo partly drawn) [Example 1, Phv-Arg-Ala-Ala-Ala-Thr-II-Ala-Papa-NH2]
dose at which active in Test C (BALB/C mice): < 0.1 mg/kg/day
concentration showing significant binding to HLA-DR4Dw4 in Test A (HLA-DR4Dw4): ≤ 0.1 µM
